Laboratory results as given in the NIST ThermoML archive (doi:10.1021/je201107a).
Numbers after ± are expanded uncertainties.

Experiments:
[1] = mn = molality of the nth substance listed, in mol/kg; conditions: 298.15 K, Ring tensiometer
[2] = cn = amount concentration of the nth substance listed, in mol/dm3; conditions: 298.15 K, Ring tensiometer

Compound `CCCCCCCCCCCCCC[N+](C)(C)C.[Br-]` [tetradecyltrimethylammonium bromide] + O has a surface tension liquid-gas ([1]; m1 = 0.0005) of 53.96 ± 0.7 mN/m, a surface tension liquid-gas ([1]; m1 = 0.00099) of 52.31 ± 0.69 mN/m and a surface tension liquid-gas ([1]; m1 = 0.00148) of 46.35 ± 0.62 mN/m. The surface tension liquid-gas ([1]; m1 = 0.00196) was 41.65 ± 0.56 mN/m, the surface tension liquid-gas ([1]; m1 = 0.00244) was 39 ± 0.53 mN/m and the surface tension liquid-gas ([1]; m1 = 0.00291) was 36.35 ± 0.5 mN/m. For the same compound, the surface tension liquid-gas ([1]; m1 = 0.00338) was 34.05 ± 0.47 mN/m, the surface tension liquid-gas ([1]; m1 = 0.00385) was 33.87 ± 0.47 mN/m and the surface tension liquid-gas ([1]; m1 = 0.00431) was 35.02 ± 0.49 mN/m. It also gave a surface tension liquid-gas ([1]; m1 = 0.00476) of 36.24 ± 0.5 mN/m, a surface tension liquid-gas ([1]; m1 = 0.00521) of 35.86 ± 0.49 mN/m and a surface tension liquid-gas ([1]; m1 = 0.00566) of 36.33 ± 0.5 mN/m. It also gave a surface tension liquid-gas ([1]; m1 = 0.0061) of 36.74 ± 0.5 mN/m, a surface tension liquid-gas ([1]; m1 = 0.00654) of 36.6 ± 0.5 mN/m and a surface tension liquid-gas ([1]; m1 = 0.00698) of 36.81 ± 0.51 mN/m.

For `CCCCCCCCCCCC[N+](C)(C)[O-]` [Dodecyldimethylamine oxide] + O, the surface tension liquid-gas ([1]; m1 = 0.00025) was 43.18 ± 0.58 mN/m, the surface tension liquid-gas ([1]; m1 = 0.0005) was 39.98 ± 0.54 mN/m and the surface tension liquid-gas ([1]; m1 = 0.00074) was 39.2 ± 0.53 mN/m. For the same compound, the surface tension liquid-gas ([1]; m1 = 0.00099) was 36.87 ± 0.51 mN/m, the surface tension liquid-gas ([1]; m1 = 0.00123) was 35.11 ± 0.49 mN/m and the surface tension liquid-gas ([1]; m1 = 0.00148) was 33.73 ± 0.47 mN/m. For the same compound, the surface tension liquid-gas ([1]; m1 = 0.00172) was 33.19 ± 0.46 mN/m, the surface tension liquid-gas ([1]; m1 = 0.00196) was 33.32 ± 0.46 mN/m and the surface tension liquid-gas ([1]; m1 = 0.00244) was 34.06 ± 0.48 mN/m. It also gave a surface tension liquid-gas ([1]; m1 = 0.00291) of 34.05 ± 0.47 mN/m, a surface tension liquid-gas ([1]; m1 = 0.00338) of 34.22 ± 0.48 mN/m and a surface tension liquid-gas ([1]; m1 = 0.00385) of 34.14 ± 0.47 mN/m. For the same compound, the surface tension liquid-gas ([1]; m1 = 0.00431) was 34.17 ± 0.47 mN/m.

With `CCCCCCCCCC[N+](C)(C)C.[Br-]` [N,N,N-trimethyl-1-decanaminium bromide] + O the surface tension liquid-gas ([2]; c1 = 0.0118) was 54.43 ± 0.71 mN/m, the surface tension liquid-gas ([2]; c1 = 0.0211) was 48.37 ± 0.64 mN/m and the surface tension liquid-gas ([2]; c1 = 0.0286) was 45.75 ± 0.61 mN/m. The surface tension liquid-gas ([2]; c1 = 0.0348) was 42.87 ± 0.58 mN/m, the surface tension liquid-gas ([2]; c1 = 0.04) was 40.18 ± 0.55 mN/m and the surface tension liquid-gas ([2]; c1 = 0.0444) was 37.98 ± 0.52 mN/m. For the same compound, the surface tension liquid-gas ([2]; c1 = 0.0464) was 37.19 ± 0.51 mN/m, the surface tension liquid-gas ([2]; c1 = 0.0483) was 36.21 ± 0.5 mN/m and the surface tension liquid-gas ([2]; c1 = 0.05) was 36.15 ± 0.5 mN/m. The surface tension liquid-gas ([2]; c1 = 0.0516) was 36.47 ± 0.5 mN/m, the surface tension liquid-gas ([2]; c1 = 0.0531) was 35.98 ± 0.5 mN/m and the surface tension liquid-gas ([2]; c1 = 0.0545) was 35.88 ± 0.49 mN/m. For the same compound, the surface tension liquid-gas ([2]; c1 = 0.0559) was 36.19 ± 0.5 mN/m and the surface tension liquid-gas ([2]; c1 = 0.0571) was 36.31 ± 0.5 mN/m.

`CCCCCCCCCCCC[N+](C)(C)C.[Br-]` [dodecyltrimethylammonium bromide] + O showed a surface tension liquid-gas ([1]; m1 = 0.0005) of 55.13 ± 0.72 mN/m, a surface tension liquid-gas ([1]; m1 = 0.00099) of 55.56 ± 0.72 mN/m and a surface tension liquid-gas ([1]; m1 = 0.00148) of 53.67 ± 0.7 mN/m. It also gave a surface tension liquid-gas ([1]; m1 = 0.00196) of 53.93 ± 0.7 mN/m, a surface tension liquid-gas ([1]; m1 = 0.00244) of 53.53 ± 0.7 mN/m and a surface tension liquid-gas ([1]; m1 = 0.00291) of 52.63 ± 0.69 mN/m. The surface tension liquid-gas ([1]; m1 = 0.00338) was 52.13 ± 0.68 mN/m, the surface tension liquid-gas ([1]; m1 = 0.00476) was 49.16 ± 0.65 mN/m and the surface tension liquid-gas ([1]; m1 = 0.00654) was 45.2 ± 0.6 mN/m. The surface tension liquid-gas ([1]; m1 = 0.00826) was 42.32 ± 0.57 mN/m, the surface tension liquid-gas ([1]; m1 = 0.00991) was 39.41 ± 0.54 mN/m and the surface tension liquid-gas ([1]; m1 = 0.0115) was 36.77 ± 0.51 mN/m. For the same compound, the surface tension liquid-gas ([1]; m1 = 0.013) was 34.09 ± 0.47 mN/m, the surface tension liquid-gas ([1]; m1 = 0.0138) was 34.98 ± 0.49 mN/m and the surface tension liquid-gas ([1]; m1 = 0.0145) was 37.44 ± 0.51 mN/m. It also gave a surface tension liquid-gas ([1]; m1 = 0.0153) of 37.98 ± 0.52 mN/m, a surface tension liquid-gas ([1]; m1 = 0.016) of 38.33 ± 0.52 mN/m and a surface tension liquid-gas ([1]; m1 = 0.0167) of 38.47 ± 0.52 mN/m. The surface tension liquid-gas ([1]; m1 = 0.0177) was 38.69 ± 0.53 mN/m and the surface tension liquid-gas ([1]; m1 = 0.0184) was 38.46 ± 0.52 mN/m.
